In patent US20160039825A1 (BIOGEN MA INC., priority 2013, published 2016) one finds inhibition and IC50 data, which are given here for 40 compounds.

Bounds are passed on as bounds.

One experiment deals with T1, Human ATX protein (Homo sapiens, UniProt Q13822).
T1 construct: made in house
As to the kind of experiment: Autotaxin (ATX) assay, FRET with FS-3 substrate. Type of experiment: biochemical. To be noted: 10 uM compound. The procedure, abridged:
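In-house human ATX (1.0 μg/mL final) was preincubated with compound for 30 min at room temperature in Tris buffer pH 7.4 with NaCl, KCl, CaCl2, MgCl2 and 1 mg/mL fatty acid-free BSA. FS-3 (2 μM final) was added and the plate shaken 2 h at room temperature in the dark. Fluorescence was read at ex 485/em 538 nm.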
In the case of `Nc1cc2n(n1)CCCN(C(=O)OCc1cc(C(F)(F)F)cc(C(F)(F)F)c1)C2` [Example 279, 3,5-Bis(trifluoromethyl)benzyl 2-amino-7,8-dihydro-4H-pyrazolo[1,5-a][1,4]diazepine-5(6H)-carboxylate], the inhibition (commonly the change of the read-out against control, counted positive when it falls) at 10 µM is 60%.

The same experiment, now with this note: upper bound bins (no greater than 100, 250 or 500 nM); FS-3 2 μM, ATX 1.0 μg/mL.
For the compound `O=C(NC1CCCC1)c1cc2n(n1)CCCN(C(=O)OCc1cc(Cl)cc(Cl)c1)C2` [Example 16, 3,5-Dichlorobenzyl 2-(cyclopentylcarbamoyl)-7,8-dihydro-4H-pyrazolo[1,5-a][1,4]diazepine-5(6H)-carboxylate], the IC50 (as a rule, the point on the concentration scale where inhibition reaches its midpoint) was at most 0.1 µM.
On the same count and under the same terms, as for `CC1CN(C(=O)c2cc3n(n2)CCCN(C(=O)OCc2cc(Cl)cc(C(F)(F)F)c2)C3)CC(C)N1` (stereo not shown) [Example 198], the figure is at most 0.1 µM; as for `CON(C)C(=O)c1cc2n(n1)CCN(C(=O)OCc1cc(C(F)(F)F)cc(C(F)(F)F)c1)C2` [Example 400, 3,5-bis(trifluoromethyl)benzyl 2-(methoxy(methyl)carbamoyl)-6,7-dihydropyrazolo[1,5-a]pyrazine-5(4H)-carboxylate], at most 0.1 µM.
Regarding `CC1CNCC(C)N1C(=O)c1cc2n(n1)CCN(C(=O)OCc1cc(C(F)(F)F)cc(C(F)(F)F)c1)C2` (stereo not shown) [Example 430], the half-maximal inhibitory concentration (IC50) was at most 0.1 µM.
The same measure, in the same setting: as for `CC(c1cc2n(n1)CCCN(C(=O)OCc1cc(Cl)cc(Cl)c1)C2)N1CCCC1` (stereo not shown) [Example 454], the figure is at most 0.5 µM; as for `O=C(OCc1cc(C(F)(F)F)cc(C(F)(F)F)c1)N1CCCn2nc(N3CC4CNCC4C3)cc2C1` (stereo not shown) [Example 351], at most 0.1 µM; as for `CCN1CCN(C(=O)c2cc3n(n2)CCCN(C(=O)OCc2cc(Cl)cc(C(F)(F)F)c2)C3)C(C)(C)C1` [Example 172], at most 0.1 µM.
The compound `O=C(OCc1cc(C(F)(F)F)cc(C(F)(F)F)c1)N1CCn2nc(N3CCNCC3)cc2C1` [Example 394, 3,5-bis(trifluoromethyl)benzyl 2-(piperazin-1-yl)-6,7-dihydropyrazolo[1,5-a]pyrazine-5(4H)-carboxylate] came in with an IC50 of at most 0.1 µM.
Turning to `O=C(O)C1CC2CCCC(C1)N2C(=O)c1cc2n(n1)CCCN(C(=O)CCc1cc(Cl)cc(Cl)c1)C2` (stereo not shown) [Example 90, 9-(5-(3-(3,5-Dichlorophenyl)propanoyl)-5,6,7,8-tetrahydro-4H-pyrazolo[1,5-a][1,4]diazepine-2-carbonyl)-9-azabicyclo[3.3.1]nonane-3-carboxylic acid], the half-maximal inhibitory concentration (IC50) is at most 0.1 µM.
The same measure, in the same setting: then `O=C(OCc1cc(C(F)(F)F)cc(C(F)(F)F)c1)N1CCCn2nc(N3CCNCC3)cc2C1` [Example 339], with at most 0.25 µM; and `CN(C)C(=O)c1cc2n(n1)CCCN(C(=O)OCc1cc(Cl)cc(Cl)c1)C2` [Example 28, 3,5-Dichlorobenzyl 2-(dimethylcarbamoyl)-7,8-dihydro-4H-pyrazolo[1,5-a][1,4]diazepine-5(6H)-carboxylate], with at most 0.1 µM; and `CC1OCCN(CC(=O)c2cc3n(n2)CCCN(C(=O)OCc2cc(Cl)cc(C(F)(F)F)c2)C3)C1C` (stereo not shown) [Example 266], with at most 0.1 µM.
The same measure, in the same setting: then `CCN1CC2CN(c3cc4n(n3)CCCN(C(=O)OCc3cc(C(F)(F)F)cc(C(F)(F)F)c3)C4)CC2C1` (stereo not shown) [Example 350], with at most 0.1 µM.
`O=C(OCc1cc(C(F)(F)F)cc(C(F)(F)F)c1)N1CCCn2nc(C(=O)N3CCNCC34CCC4)cc2C1` [Example 235]: the IC50 was at most 0.1 µM.
On the same count and under the same terms, then `O=C(OCc1cc(C(F)(F)F)cc(C(F)(F)F)c1)N1CCCn2nc(N3CCC4NCCC43)cc2C1` (stereo not shown) [Example 359], with at most 0.1 µM; and `O=C(CN1CCCC1)c1cc2n(n1)CCCN(C(=O)OCc1cc(Cl)cc(C(F)(F)F)c1)C2` [Example 273], with at most 0.1 µM; and `Cc1cc(-c2cc3n(n2)CCCN(C(=O)OCc2cc(C(F)(F)F)cc(C(F)(F)F)c2)C3)ccn1` [Example 368], with at most 0.1 µM.
Same read-out and setting: as for `O=C(OCc1cc(C(F)(F)F)cc(C(F)(F)F)c1)N1CCn2nc(C3=CCNCC3)cc2C1` [Example 516], the figure is at most 0.1 µM; as for `CN1CCN(c2cc3n(n2)CCN(C(=O)OCc2cc(C(F)(F)F)cc(C(F)(F)F)c2)C3)CC1` [Example 393, 3,5-bis(Trifluoromethyl)benzyl 2-(4-methylpiperazin-1-yl)-6,7-dihydropyrazolo[1,5-a]pyrazine-5(4H)-carboxylate], at most 0.1 µM.
The compound `CN1CCN(C(=O)c2cc3n(n2)CCCN(C(=O)OCc2cc(Cl)cc(C(F)(F)F)c2)C3)CC1` [Example 216] showed an IC50 of at most 0.1 µM.
The same measure, in the same setting: then `CN1CCN(C(=O)c2cc3n(n2)CCCN(C(=O)OCc2cc(C(F)(F)F)cc(C(F)(F)F)c2)C3)C2(CCCC2)C1` [Example 238], with at most 0.1 µM; and `O=C(OCc1cc(Cl)cc(C(F)(F)F)c1)N1CCCn2nc(CNC3=NCCS3)cc2C1` [Example 153, 3-chloro-5-(trifluoromethyl)benzyl 2-(((4,5-dihydrothiazol-2-yl)amino)methyl)-7,8-dihydro-4H-pyrazolo[1,5-a][1,4]diazepine-5(6H)-carboxylate], with at most 0.1 µM.
The same measure, in the same setting: as for `CN1C2CCC1CN(C(=O)c1cc3n(n1)CCCN(C(=O)OCc1cc(C(F)(F)F)cc(C(F)(F)F)c1)C3)C2` [Example 225], the figure is at most 0.1 µM; as for `CN1CCN(C(=O)c2cc3n(n2)CCN(C(=O)OCc2cc(Cl)cc(C(F)(F)F)c2)C3)C(C)(C)C1` [Example 495], at most 0.1 µM; as for `CN1CCN(C(=O)c2cc3n(n2)CCCN(C(=O)OCc2cc(Cl)cc(C(F)(F)F)c2)C3)C2(CC2)C1` [Example 180], at most 0.1 µM.
Still for that read-out and setting: then `CN1C2C=C(c3cc4n(n3)CCCN(C(=O)OCc3cc(C(F)(F)F)cc(C(F)(F)F)c3)C4)CC1CC2` (stereo not shown) [Example 379], with at most 0.1 µM; and `CN1CCN(C(=O)c2cc3n(n2)CCCN(C(=O)OCc2cc(Cl)cc(C(F)(F)F)c2)C3)C(C(=O)O)C1` (stereo not shown) [Example 184], with at most 0.1 µM.
`CC(CO)NC(=O)c1cc2n(n1)CCN(C(=O)OCc1cc(C(F)(F)F)cc(C(F)(F)F)c1)C2` (stereo not shown) [Example 472] showed an IC50 of at most 0.1 µM.
`CC1CN(C(=O)c2cc3n(n2)CCN(C(=O)OCc2cc(C(F)(F)F)cc(C(F)(F)F)c2)C3)CC(C)N1` (stereo not shown) [Example 433] displayed a half-maximal inhibitory concentration (IC50) of at most 0.1 µM.
Turning to `CC1CNCC(C)N1C(=O)c1cc2n(n1)CCN(C(=O)OCc1cc(Cl)cc(C(F)(F)F)c1)C2` (stereo not shown) [Example 162, 3-chloro-5-(trifluoromethyl)benzyl 2-(2,6-dimethylpiperazine-1-carbonyl)-6,7-dihydropyrazolo[1,5-a]pyrazine-5(4H)-carboxylate], the IC50 was at most 0.1 µM.
Same read-out and setting: as for `CC1CNCC(C)N1C(=O)c1cc2n(n1)CCCN(C(=O)OCc1cc(Cl)cc(C(F)(F)F)c1)C2` (stereo not shown) [Example 199], the figure is at most 0.1 µM.
In turn, `O=C(O)c1cnc2n1CCN(C(=O)OCc1cc(C(F)(F)F)cc(C(F)(F)F)c1)CC2` [Example 10, 7-(((3,5-Bis(trifluoromethyl)benzyl)oxy)carbonyl)-6,7,8,9-tetrahydro-5H-imidazo[1,2-d][1,4]diazepine-3-carboxylic acid] had an IC50 of at most 0.5 µM.
Compound `O=C(CN1CC(C(=O)O)C1)c1cc2n(n1)CCCN(C(=O)OCc1cc(Cl)cc(C(F)(F)F)c1)C2` [Example 272] yielded a concentration for half-maximal inhibition (IC50) of at most 0.1 µM.
`O=C(OCc1cc(C(F)(F)F)cc(C(F)(F)F)c1)N1CCCn2nc(NC3CCCNC3)cc2C1` (stereo not shown) [Example 317] gave a half-maximal inhibitory concentration (IC50) of at most 0.25 µM.
Compound `CC1(C)CNCCN1C(=O)c1cc2n(n1)CCN(C(=O)OCc1cc(Cl)cc(C(F)(F)F)c1)C2` [Example 432] yielded an IC50 of at most 0.1 µM.
`O=C(OCc1cc(C(F)(F)F)cc(C(F)(F)F)c1)N1CCCn2nc(CN3CCC(F)CC3)cc2C1` [Example 510]: the 50% inhibitory concentration (IC50) was at most 0.1 µM.
Take `O=C(OCc1cc(C(F)(F)F)cc(C(F)(F)F)c1)N1CCn2nc(C3=CCCNC3)cc2C1` [Example 444]: the IC50 is at most 0.1 µM.
`CCOC(=O)c1cc2n(n1)CCCN(C(=O)OCc1cc(Cl)cc(C(F)(F)F)c1)C2` [Example 404] came in with an IC50 of at most 0.1 µM.
Same read-out and setting: as for `O=C(NCC1CC1)c1cc2n(n1)CCCN(C(=O)OCc1cc(C(F)(F)F)cc(C(F)(F)F)c1)C2` [Example 502], the figure is at most 0.1 µM.
